This note sets out measurements from patent publication US8309579B2, “N-hydroxyamide derivatives and use thereof” (Merck Serono SA, priority 2005, dated 2012).

For orientation: IC50 means the concentration needed to halve the response being measured.

For assay [1], the target named is T1, collagenase (MMP-1) (Homo sapiens, UniProt P03956).
T1 sequence (P03956 100-469): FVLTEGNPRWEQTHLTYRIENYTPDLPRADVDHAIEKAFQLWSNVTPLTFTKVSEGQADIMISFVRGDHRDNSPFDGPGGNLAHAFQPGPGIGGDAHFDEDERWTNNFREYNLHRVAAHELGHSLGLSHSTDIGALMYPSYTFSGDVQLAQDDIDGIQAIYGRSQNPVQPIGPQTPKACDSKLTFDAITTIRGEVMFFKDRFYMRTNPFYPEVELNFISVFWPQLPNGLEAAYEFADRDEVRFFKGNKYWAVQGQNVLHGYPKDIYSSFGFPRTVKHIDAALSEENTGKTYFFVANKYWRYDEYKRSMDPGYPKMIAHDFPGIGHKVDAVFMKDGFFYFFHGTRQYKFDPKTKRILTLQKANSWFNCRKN
Description: MMP-1 enzyme inhibition assay (coumarin-labelled peptide substrate). Type of assay: biochemical. As to the method: (§1) Stock solutions were made up as follows: Assay Butter: 100 mM Tris-HCl pH 7.6 containing 100 mM NaCl, 10 mM CaCl2, and 0.05% Brij 35.
(§2) Substrate: 0.4 mM McaPLGLDpaAR (from Bachem) (0.437 mg/ml) stock solution in 100% DMSO (stored at −20° C.). Dilute to 8 μM in assay butter.
(§3) Test Compounds were prepared initially as 10 mM compound solution in 100% DMSO, diluted to 1 mM in 100% DMSO, then serially diluted 3-fold in 100% DMSO across columns 1-10 of a 96-well microtitre plate Assay concentration range, 100 μM (column 1) to 5.1 nM (column 10).
(§4) The assay was performed in a total volume of 100 μL per well in 96-well microtitre plates. Activated enzyme (20 μL) was added to the wells followed by 20 μL of assay butter. Appropriate concentrations of test compounds dissolved in 10 μL of DMSO were then added followed by 50 μL of McaPLGLDpaAR (8 μM, prepared by dilution of DMSO stock in assay butter). For each assay ten concentrations of test compound were examined in duplicate. Control wells lack either enzyme or test compound. The reactions were incubated at 37° C. for 2 hours. The fluorescence at 405 nm was measured immediately with an SLT Fluostar fluorometer (SL T Labinstruments GmbH, Grödig, Austria) using 320 nm excitation, without stopping the reaction.
(§5) The effect of the test compound was determined from the dose response curve generated by the 10 duplicate concentrations of inhibitor. […]

Assay [2] addresses T2, gelatinase A (MMP-2) (Homo sapiens, UniProt P08253).
T2 sequence (P08253 110-660): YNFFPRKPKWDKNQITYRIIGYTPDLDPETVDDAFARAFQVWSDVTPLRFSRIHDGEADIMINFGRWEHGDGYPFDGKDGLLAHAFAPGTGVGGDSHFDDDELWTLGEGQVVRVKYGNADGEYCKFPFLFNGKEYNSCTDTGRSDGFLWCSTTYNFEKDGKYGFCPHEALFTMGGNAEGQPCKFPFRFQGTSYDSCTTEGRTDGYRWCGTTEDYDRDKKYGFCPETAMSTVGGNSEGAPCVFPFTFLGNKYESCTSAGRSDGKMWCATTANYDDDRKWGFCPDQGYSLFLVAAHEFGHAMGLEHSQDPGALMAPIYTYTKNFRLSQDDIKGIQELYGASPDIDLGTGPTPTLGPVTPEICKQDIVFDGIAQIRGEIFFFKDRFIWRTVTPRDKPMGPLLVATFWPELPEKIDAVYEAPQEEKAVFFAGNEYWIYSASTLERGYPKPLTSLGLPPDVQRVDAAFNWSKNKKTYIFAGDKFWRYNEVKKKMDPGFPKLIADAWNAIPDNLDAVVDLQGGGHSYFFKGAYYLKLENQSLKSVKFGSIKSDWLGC
The assay is described as follows: MMP-2 enzyme inhibition assay (coumarin-labelled peptide substrate). Type of assay: biochemical. As to the method:
as §1, §2, §3, §4, §5

In assay [3] the target is metalloelastase (MMP-12) (Homo sapiens, UniProt P39900). The assay is described as follows: MMP-12 enzyme inhibition assay (coumarin-labelled peptide substrate). It counts as biochemical. As to the method: as §1, §2, §3, §4, §5
metalloelastase (MMP-12), sequence (P39900 106-470): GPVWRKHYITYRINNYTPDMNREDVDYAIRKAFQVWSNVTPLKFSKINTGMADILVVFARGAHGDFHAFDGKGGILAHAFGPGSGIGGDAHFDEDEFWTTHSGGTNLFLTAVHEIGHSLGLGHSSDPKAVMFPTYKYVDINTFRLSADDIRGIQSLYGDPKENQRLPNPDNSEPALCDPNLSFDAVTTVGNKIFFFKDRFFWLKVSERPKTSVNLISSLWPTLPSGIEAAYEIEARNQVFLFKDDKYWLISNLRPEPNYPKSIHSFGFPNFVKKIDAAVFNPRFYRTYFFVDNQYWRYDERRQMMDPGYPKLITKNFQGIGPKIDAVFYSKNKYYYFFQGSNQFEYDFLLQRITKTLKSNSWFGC
Assay [4] concerns IL-2-induced peritoneal recruitment of lymphocytes. Description: IL-2-induced peritoneal recruitment of lymphocytes. Type of assay: in vivo, C3H/HEN mice. The conditions noted are these: mice, 3 mg/kg p.o., 15 min prior to IL-2; cells collected 24 h after IL-2. As to the method: Administration of IL-2 intraperitoneally causes migration of lymphocytes into the intraperitoneal cavity. This is a model for the cellular migration that occurs during inflammation.
C3H/HEN mice (Elevage Janvier, France) were intraperitoneally injected with IL-2 (20 μg/kg, in saline).
Compounds of the invention were suspended in 0.5% carboxymethylcellulose (CMC)/0.25% tween-20 and were administered by s.c. or p.o. route (10 ml/kg) 15 min prior to administration of IL-2.
Twenty-four hours after administration of IL-2, peritoneal white blood cells were collected by 3 successive lavages of the peritoneal cavity with 5 ml phosphate buffered saline (PBS)-1 mM EDTA (+4° C.). The suspension was centrifuged (1700 g×10 min at +4° C.). The resulting pellet was suspended in 1 ml PBS-1 mM EDTA.
Lymphocytes were identified and counted using a Beckman/Coulter counter.
The animals were divided into 6 groups (6 mice each group):
Inhibition of lymphocyte recruitment was calculated as follows:
Where Ly 1=Number of lymphocytes in group 1 (E3/μl), Ly 2=Number of lymphocytes in group 2 (E3/μl), Ly X=Number of lymphocytes in group X (3-5) (E3/μl).

`COc1ccc(N2CCN(C(=O)[C@@H](CC(C)C)CN(O)C=O)CC2)cc1` [Example 1, hydroxy((2S)-2-{[4-(4-methoxyphenyl)piperazin-1-yl]carbonyl}-4-methylpentyl)formamide]: the half-inhibitory concentration (IC50) was over 5000 nM in assay [1], 13 nM in assay [2] and 68 nM in assay [3]. Further, in assay [4], the “% inhibition of IL-2-induced peritoneal recruitment of lymphocytes” value amounted to 35 ± 10%.

Turning to `CC(C)C[C@@H](CN(O)C=O)C(=O)N1CCN(c2ccc(-c3ccccc3)cc2)CC1` [Example 2, {(2S)-2-[(4-biphenyl-4-ylpiperazin-1-yl)carbonyl]-4-methylpentyl}hydroxyformamide], the figures for the IC50 in assay [1], in assay [2] and in assay [3] were over 5000 nM, 9 nM and 8 nM, respectively.
